The values below come from PubChem BioAssay (NCI).

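Grown in 96-well plates, cells were treated for 48 hours with each compound at five concentrations. Insufficient inhibition: endpoint recorded as highest concentration tested. GI50 marks 50% less growth. TGI is the concentration that stops growth completely.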 Where only a bound is given, the exact number is not on record here.

Some test systems named below: A498 renal; HCC-2998 colon; HCT-15 colon; IGROV1 ovarian; MDA-MB-231 breast; SF-268 CNS; SNB-19 CNS; TK-10 renal; U251 CNS; UACC-257 melanoma.
Test in all cases: NCI-60 cell line screen, 48 h

For the compound `COc1ccc(NC(=O)COc2ccccc2)c(C(N)=O)c1`, the GI50 was 0.757 µM in the test on A498 renal; 3.2 µM with HCC-2998 colon; 0.523 µM in the test on HCT-15 colon; 4.71 µM in the test with IGROV1 ovarian; 1.91 µM in the test on MDA-MB-231 breast; 4.25 µM in the test on SF-268 CNS. Further, the GI50 is 1.9 µM in the test on SNB-19 CNS, 18.3 µM in the test with TK-10 renal, 0.742 µM in the test on U251 CNS and above 100 µM with UACC-257 melanoma. Also, the TGI is 8.38 µM with A498 renal; above 87.3 µM with HCC-2998 colon; above 100 µM in the test on HCT-15 colon; above 100 µM in the test on IGROV1 ovarian; above 63 µM in the test with MDA-MB-231 breast; above 75.1 µM with SF-268 CNS. Further, the TGI was above 68.9 µM with SNB-19 CNS, above 100 µM in the test on TK-10 renal, 20.1 µM in the test with U251 CNS and above 100 µM with UACC-257 melanoma.
Take `CC[C@]12C=CCN3CC[C@@]4(c5ccc(OC)cc5N(C)[C@H]4[C@@](O)(C(=O)OC)[C@@H]1OC(=O)CCCC[P+](c1ccccc1)(c1ccccc1)c1ccccc1)[C@@H]32`: the GI50 is 2.84 µM with A498 renal; 0.42 µM in the test with HCC-2998 colon; 19.4 µM in the test on HCT-15 colon; 0.486 µM in the test on IGROV1 ovarian; 0.414 µM in the test with MDA-MB-231 breast; 0.644 µM in the test with SF-268 CNS. The GI50 was 0.384 µM with SNB-19 CNS, 2.79 µM in the test on TK-10 renal, 0.441 µM in the test on U251 CNS and 0.279 µM in the test with UACC-257 melanoma. In addition, the TGI in the test on A498 renal came out at 10.4 µM; in the test on HCC-2998 colon it was 2.71 µM; with HCT-15 colon, 43.6 µM; with IGROV1 ovarian, 1.98 µM; in the test with MDA-MB-231 breast it was 1.9 µM; with SF-268 CNS it was 3.98 µM. The TGI with SNB-19 CNS worked out at 2.92 µM; with TK-10 renal, 9.66 µM; with U251 CNS it was 4.4 µM; in the test on UACC-257 melanoma, 1.09 µM.
As for `CC(C)(C)n1nc(C2CC2)cc1NC(=O)Nc1ccc(Cl)cc1`, the TGI in the test on A498 renal, in the test on HCC-2998 colon, with HCT-15 colon, in the test with IGROV1 ovarian, with MDA-MB-231 breast and in the test with SF-268 CNS was above 100 µM in each case. Further, the TGI with SNB-19 CNS, in the test with TK-10 renal, in the test on U251 CNS and in the test with UACC-257 melanoma was above 100 µM throughout.
In the case of `COC1=CC(=O)c2c(O)c3c(c(O)c2C1=O)OC1(Oc2c(cc4cc(C)oc(=O)c4c2O)CC1O)C3O` (centres undefined), the TGI is above 100 µM in the test on A498 renal; 63.8 µM in the test with HCC-2998 colon; above 100 µM in the test on HCT-15 colon; 66.5 µM in the test with IGROV1 ovarian; 54.5 µM in the test on MDA-MB-231 breast; above 100 µM with SF-268 CNS. The TGI with SNB-19 CNS was 62.4 µM; in the test with TK-10 renal, above 100 µM; in the test on U251 CNS, above 100 µM; in the test on UACC-257 melanoma, above 100 µM.
For the compound `NNC(=O)C(O)C(O)C(O)CO` (centres undefined), the TGI in the test on A498 renal, with HCC-2998 colon, in the test on HCT-15 colon, in the test with IGROV1 ovarian, in the test on MDA-MB-231 breast and in the test with SF-268 CNS was above 100 µM each time. Further, the TGI in the test on SNB-19 CNS, with TK-10 renal, in the test on U251 CNS and with UACC-257 melanoma was above 100 µM each time.
On to `COc1ccc(C2CC(c3ccc4ccccc4c3)=NN2/C=C2\SC(=S)N(NC(=O)Cc3ccccc3Nc3c(Cl)cccc3Cl)C2=O)cc1` (centres undefined), for which the GI50 with A498 renal is 0.302 µM; with HCC-2998 colon, 1.39 µM; in the test with HCT-15 colon, 0.467 µM; in the test on IGROV1 ovarian, 0.588 µM; in the test with MDA-MB-231 breast, 1.6 µM; in the test with SF-268 CNS, 0.809 µM. For the same compound, the GI50 is 0.636 µM with SNB-19 CNS, 3.57 µM with TK-10 renal, 0.402 µM in the test with U251 CNS and 3.86 µM in the test with UACC-257 melanoma. Also, the TGI with A498 renal was 0.99 µM; in the test with HCC-2998 colon it was above 33.3 µM; with HCT-15 colon, above 65.1 µM; with IGROV1 ovarian, above 42 µM; with MDA-MB-231 breast it was above 44.4 µM; in the test on SF-268 CNS, above 48.8 µM. Besides, the TGI with SNB-19 CNS is above 46.8 µM; in the test on TK-10 renal it was 43.2 µM; with U251 CNS, above 36.7 µM; in the test on UACC-257 melanoma it was above 100 µM.
`Oc1ccccc1/C=N/Nc1nc2ccccc2s1`: the GI50 in the test on A498 renal is 32.4 µM; in the test with HCC-2998 colon, 5.37 µM; with HCT-15 colon, 2.17 µM; with IGROV1 ovarian, 2.77 µM; with MDA-MB-231 breast, 2.49 µM; with SF-268 CNS, 3.8 µM. In addition, the GI50 with SNB-19 CNS is 18.7 µM; with TK-10 renal it was 4.79 µM; with U251 CNS it was 8.1 µM; with UACC-257 melanoma, 8.87 µM. Also, the TGI in the test on A498 renal, in the test with HCC-2998 colon, with HCT-15 colon, in the test on IGROV1 ovarian, with MDA-MB-231 breast and in the test with SF-268 CNS was above 100 µM in each case. Further, the TGI in the test with SNB-19 CNS, in the test with TK-10 renal, with U251 CNS and in the test on UACC-257 melanoma was above 100 µM each time.
For the compound `O=c1[nH]ccc2nc(N3CCC(O)CC3)nc(Nc3ccc(N4CCOCC4)cc3)c12`, the GI50 was 1.49 µM in the test on A498 renal; 1.24 µM in the test with HCT-15 colon; 0.584 µM in the test on IGROV1 ovarian; 7.41 µM in the test with MDA-MB-231 breast; 5.94 µM with SF-268 CNS; above 78.8 µM in the test on SNB-19 CNS. The GI50 was above 26.3 µM in the test on TK-10 renal, above 81 µM in the test with U251 CNS and above 100 µM in the test on UACC-257 melanoma. Besides, the TGI in the test with A498 renal is 9.77 µM; in the test with HCC-2998 colon, above 81.2 µM; in the test on HCT-15 colon it was above 100 µM; in the test on IGROV1 ovarian, above 100 µM; in the test with MDA-MB-231 breast, above 100 µM; with SF-268 CNS, above 100 µM. The TGI in the test with SNB-19 CNS, in the test on TK-10 renal, in the test with U251 CNS and in the test on UACC-257 melanoma was above 100 µM throughout.
